According to US20260272908A1 (VANDERBILT UNIVERSITY, priority 2023, published 2026):

Assays:
[1] = tested on: phospho-STAT3 (p-STAT3); test: Western blot for phospho-STAT3 in Meta3 and Meta4 organoids; format: cell-based, mouse; conditions: Meta4; 3 days
Experimental: (§1) FIG. 3C-3D show the Western blot analysis for p-STAT3 and p-ERK in Meta3 and Meta4 organoids (FIG. 3C) and ratios of p-STAT3/total STAT3 and p-ERK/total ERK (FIG. 3D). […] FIG. 3F-3G show phase-contrast images of Meta4 organoids treated with DMSO, Pyr (100 nM), STAT3-IN-1 (1 μM), Stattic (2 μM), and Cryptotanshinone (CPT) (5 μM) for 3 days (FIG. 3F), and quantitation of organoid diameters before and after treatment (FIG. 3G). FIG. 3H-3I show phase-contrast images of Meta4 organoids treated with DMSO, trametinib (Tra), STAT3-IN-1, combination of Tra and STAT3-IN-1, and Pyr, for 3 days (FIG. 3H), and quantitation of organoid diameters before and after treatment (FIG. 3I). FIG. 3J-3K show western blot for p-STAT3 and p-ERK after treatment of Tra, Pyr, and SSTC3 (FIG. 3J) and ratios of p-STAT3/t-STAT3 and p-ERK/t-ERK (FIG. 3K). […] Relative quantification of each gene expression level was normalized to GAPDH gene expression. Shading scale represents the mRNA expression values. FIG. 3M show representative mRNA of Pim-1 and Cyclin-B1 after treatment. Mean±standard deviation. […] Scale bar=500 μM.
(§2) Total proteins were extracted from organoids using radioimmunoprecipitation assay buffer (10 mmol/L Tris-HC, pH 7.2, 150 mmol/L NaCl, 5 mmol/L EDTA, 0.1% sodium dodecyl sulfate, 1.0% Triton X-100, 1% deoxycholate) with protease inhibitors. The protein concentration was measured The Bio-Rad Protein Assay (Bio-Rad Laboratories, Hercules, CA). 5 to 10 μg of total protein was loaded onto 12.5% or 10% sodium dodecyl sulfate/polyacrylamide gel electrophoresis (PAGE) and transferred onto polyvinylidene difluoride membranes (Millipore, Billerica, MA). […] After washes with TBS-T, chemiluminescence was detected with an Amersham Imager 680 instrument (GE Healthcare) after 1 mL of the SuperSignal West Femto Maximum Sensitivity Substrate (ThermoFisher) was applied to the membranes.

[2] = tested on: Meta4 organoids; test: Meta4 dysplastic organoid growth and cell death (organoid diameter, phase-contrast, H&E, live/dead staining); format: cell-based, mouse; conditions: pyrvinium 100 nM, SSTC3 0.2-1 μM, STAT3-IN-1 1 μM, Sttatic 2 μM, 3 days; for cell death: trametinib 1 μM
Experimental: (§3) All experiments were repeated at least three times.
(§4) All experiments were performed at least in triplicate.

[3] = tested on: phospho-ERK (p-ERK); test: Western blot for phospho-ERK in Meta3 and Meta4 organoids; format: cell-based, mouse; conditions: Meta4; 3 days
Experimental: as §1, §2

[4] = tested on: Meta3 organoids; test: Meta3 metaplastic organoid growth and survival (organoid diameter, phase-contrast); format: cell-based, mouse; conditions: STAT3-IN-1 1 μM, Sttatic 2 μM, CPT 5 μM, 3 days
Experimental: as §3, §4

[5] = tested on: human pre-cancerous organoid (hPCO) lines; test: Human precancerous organoid (hPCO) growth and organoid death; conditions: STAT3 inhibitors; for response (growth and survival): pyrvinium-resistant hPCO-31
Experimental: To establish human pre-cancer organoids (hPCO), fresh tissues were obtained from the gastric cancer patients who underwent curative gastrectomy at SNUH (IRB No. H-1806-166-954).
Meta3, Meta4, and hPCO organoids were cultured in Matrigel (ECM, Sigma) with Mouse or Human IntestiCult medium (StemCell Technology) supplemented with 1% of penicillin/streptomycin (Gibco) in 48-well plates and medium was replaced every 3 days. The organoids were split every 5-7 days before they formed budding structures.
Mouse or human organoids were split and cultured in the Mouse or Human IntestiCult media for 1-2 days until they formed three-dimensional (3D) spherical structures, then the media was switched to media containing either DMSO vehicle or a certain concentration of each drug and cultured for 3 days. The EVOS M7000 inverted microscope were used to obtain phase contrast images of organoids. All experiments were repeated at least three times.
The number and diameters of mouse and human organoids treated with drugs were manually counted and measured at day 0 and 3 or 6 after treatment from four entire well images of each condition at 4× magnification. For counting live or dead cells, organoids were stained with Calcein AM for live cells and EthD-1 for dead cells 3 days after treatment and the number of EthD-1 positive organoids were manually counted from images taken from three wells of each condition at 4× magnification. All experiments were performed at least in triplicate. The mean values from each condition were compared by Student's paired or unpaired t-test using Graphpad Prism. *P<0.05, **P<0.01, ***P<0.001, ****P<0.0001.

[6] = pyrvinium-sensitive hPCO-2 line

SMILES | phosphorylation of STAT3^Y705 [1] | organoid size / growth [2] | cell death [2] | p-ERK levels [3] | survival and growth of organoids [4] | response (growth and survival) [5] | organoid survival [5, 6] | organoid growth ([5]; pyrvinium-sensitive hPCO-2 line, 6 days)
CN(c1ccc(C(F)(F)F)cc1)S(=O)(=O)c1ccc(C(=O)Nc2nc(-c3ccccn3)cs2)cc1 [SSTC3] | did not reduce | did not cause any growth suppression or cell death | did not cause any growth suppression or cell death | did not reduce |  |  |  | 
COc1cc(/C=C/c2ccc(NC(=O)/C=C/c3cc(OC)c(OC)c(OC)c3)cc2)cc(OC)c1 [STAT3-IN-1] |  | induced growth arrest | did not lead to cell death |  | no influence on the survival and growth | did not respond | survived until 6 days after the treatment | 
O=[N+]([O-])c1ccc2c(c1)S(=O)(=O)C=C2 [Sttatic] |  | induced growth arrest | did not lead to cell death |  | no influence on the survival and growth | did not respond | survived until 6 days after the treatment | arrested organoid growth
